Measured values as given in publication PMC8764033, “Single-molecule analysis of specificity and multivalency in binding of short linear substrate motifs to the APC/C” (Nature Communications, 2022).
Read-outs that look alike come from different tables or passages of the source. Where a SMILES comes first, the peptide text is derived from it.

Columns and labels:
Cdc20 = details: cited from earlier work
Text: This specificity raises the exciting possibility of activator-specific targeted protein degradation as a therapeutic application.

Cdh1^WD40 = molecular target: T1, Cdh1^WD40 (Saccharomyces cerevisiae, UniProt P53197); assay: SMOR assay (single-molecule off-rate, TIRF), yeast Cdh1^WD40; type: binding
T1 construct: the WD40 domains of yeast Cdh1 (aa 241–550; pNH144); made in house; host or cells: Sf9 insect cells (baculovirus)
T1 sequence (P53197 241-550): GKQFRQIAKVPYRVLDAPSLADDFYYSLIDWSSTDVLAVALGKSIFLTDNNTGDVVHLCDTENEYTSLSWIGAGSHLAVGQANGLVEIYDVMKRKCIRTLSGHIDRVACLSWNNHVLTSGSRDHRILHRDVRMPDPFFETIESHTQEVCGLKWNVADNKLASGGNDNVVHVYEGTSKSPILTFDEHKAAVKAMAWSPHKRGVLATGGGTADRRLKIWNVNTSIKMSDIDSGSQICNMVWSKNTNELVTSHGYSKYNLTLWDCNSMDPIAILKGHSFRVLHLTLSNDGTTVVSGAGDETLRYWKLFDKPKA
Procedure: (§1) Activators were cloned into the pFastBac HT A vector, with an N-terminal 2xStrep-Tag II. For some experiments, we constructed vectors for expression of the WD40 domains of yeast Cdh1 (aa 241–550; pNH144), human Cdh1 (aa 165–484; pNH164), or human Cdc20 (aa 162–484; pNH188). For SMOR, a C-terminal GFP tag was added. Bacmid plasmids are listed in Supplementary Table 3. Plasmids were transformed into DH10Bac cells, and purified Bacmid was used to transfect Sf9 cells to generate P1 baculovirus, which was used to generate P2 virus. SF9 cells were infected with the P2 virus for 48 h. Flash-frozen pellets were lysed by sonication or high-pressure homogenization in lysis buffer B (50 mM Tris-HCl pH 8, 150 mM KCl, 0.5 mM EDTA, 1 mM DTT, 10% Glycerol, EDTA-free protease inhibitor tablet, 1 µg ml^−1 pepstatin A). After the lysate was applied to the StrepTrap column, the column was washed with wash buffer B (lysis buffer B lacking protease inhibitors) and eluted in the same buffer containing 2.5 mM desthiobiotin.
(§2) For all SMOR experiments, 24 × 50 mm high precision glass coverslips (Bioscience Tools) and drilled microscope slides were passivated with a combination of PEG and PEG-biotin (coverslips) or PEG only (slides) following a previously published protocol for SiMPull[31]. Reaction chambers (~20 µl) were created using double-sided tape and epoxy. Protein was immobilized on the surface with 0.2 mg ml^−1 NeutrAvidin in buffer C (20 mM HEPES pH 7.5, 150 mM KCl, 10% glycerol, 0.05% Tween-20, 1 mM DTT). Excess NeutrAvidin was washed away and incubated with either biotin-conjugated mouse monoclonal anti-Strep-Tag II antibody (LSBio, Cat. No. LS-C203632-100) or biotin-conjugated rabbit polyclonal anti-GFP antibody (Rockland, Cat. No. 600-406-215) diluted in buffer C + BSA (0.1 mg ml^−1; Molecular Biology Grade Bovine Serum Albumin). Activator WD40 and activated APC/C (typically 50 µl containing about 65 ng APC/C, of which only a small fraction is immobilized on the glass) were immobilized using anti-Strep-Tag II, while APC/C alone was immobilized with anti-GFP. SMOR results were similar when performed in the buffer (wash buffer B) used in polarization anisotropy.
(§3) To capture dynamic protein–protein interactions, dye-labeled substrate diluted in buffer C + BSA was added to the chamber containing immobilized proteins. Interactions were imaged by TIRF microscopy as described below. For optimal signal-to-noise ratio, peptide concentration was no greater than 1 nM. Protein substrates included Hsl1 aa 667–872 and a C-terminal HaloTag followed by a TAP tag, and were produced by translation in rabbit reticulocyte lysates using TnT Quick Coupled Transcription/Translation System (Promega) (see Supplementary Table 5 for plasmids). Protein was purified with magnetic IgG beads and labeled on the bead with JF549 or JF646 dye so that unbound dye could be washed away. Purified dye-labeled protein was then cleaved from the beads using TEV protease. Before adding substrate to the reaction chamber, oxygen scavenging reagents were added (10 nM protocatechuate-3,4-dioxygenase, 2.5 mM protocatechuic acid, and 1 mM Trolox)[41]. A detailed description of the SMOR analysis pipeline is found in Supplementary Note 1.
(§4) Microscopy was performed with a Nikon Eclipse TE2000-E with Perfect Focus with a 100 × 1.49na oil, Apo TIRF DIC N2, 0.13-0.2, WD0.12 objective. Movies were recorded using the Andor iXon DU-897E-CSO. For visualizing GFP-tagged protein, a 491 nm laser was used with an ET525/50 (Chroma) filter for emission. For visualizing JF549-labeled substrate, a 561 nm laser was used with an ET595/50 (Chroma) filter for emission. For visualizing all Cy5-labeled peptides and JF646-labeled substrates, a 640 nm laser was used with an ET685/70 filter (Chroma) for emission. […]

Cdh1 WD40 domain (yeast) = molecular target: T2, Cdh1 WD40 domain (yeast) (Saccharomyces cerevisiae, UniProt P53197); assay: Fluorescence anisotropy, 10 nM Cy5-labeled degron peptide, yeast Cdh1 WD40; type: binding
T2 construct: the WD40 domains of yeast Cdh1 (aa 241–550; pNH144); 2xStrep-Tag II (N); made in house; host or cells: Sf9 insect cells (baculovirus)
T2 sequence (P53197 241-550): T1 sequence (P53197 241-550)
Text: To determine the affinities of APC/C degrons for their binding sites, we first used conventional equilibrium binding assays of degron peptide binding to the activator. We used the baculovirus system to produce the WD40 domain of Cdh1 from the budding yeast Saccharomyces cerevisiae and measured fluorescence anisotropy to assess the binding of fluorescently-tagged degron peptides at increasing activator concentrations. The WD40 domain of yeast Cdc20 could not be expressed and was not studied.
as §1
Fluorescent degron peptides carried a C-terminal Cy5 label (CPC Scientific) and are listed in Supplementary Table 4. For anisotropy experiments, 10 nM fluorescent peptide was mixed with various concentrations of purified Cdh1 WD40 in wash buffer B at room temperature for 1 min, which we determined was sufficient for the binding reaction to reach equilibrium. Fluorescence was measured on a K2 Multifrequency Fluorometer at 25 °C. All Cy5-labeled peptides were excited with polarized light at 635 nm and emission was detected using a 700/75 nm bandpass filter (ET series, Chroma). […] Data were fitted to one-site equilibrium binding using GraphPad Prism version 8.4 to determine KD. Results were the same when peptide binding was measured in the buffer used in SMOR assays (buffer C, below).

hCdh1^WD40 = molecular target: T3, hCdh1^WD40 (Homo sapiens, UniProt Q9UM11); assay: SMOR assay, human Cdh1 WD40; type: binding; details: human Cdh1, D-box binding; read-out: inferred kon
T3 construct: human Cdh1 (aa 165–484; pNH164); made in house; host or cells: Sf9 insect cells (baculovirus)
Procedure: as §1, §2, §3, §4

APC/C^apo = molecular target: T4, APC/C^apo (Saccharomyces cerevisiae, UniProt P38042+P53068); assay: SMOR assay, yeast APC/C^apo (no activator); type: binding
T4 construct: APC/C was purified from yeast cells; made in house; host or cells: S. cerevisiae W303 strain NHY13 (Cdc16-TAP, Apc1-GFP, cdh1 deleted)
Procedure: Yeast strains were derivatives of W303 and are listed in Supplementary Table 2. For APC/C purification, we used a strain carrying Cdc16-TAP and lacking Cdh1 (DOM1126); in most experiments, the strain also carried Apc1-GFP (NHY13). Yeast were grown in YPD media to OD600 = 0.8, collected and flash-frozen. Cells were lysed by bead beating in lysis buffer A (50 mM HEPES pH 7.5, 150 mM KCl, 10% glycerol, 0.2% Triton X-100, 63 µM B-glycerophosphate, 48 µM sodium fluoride, 1 µg ml^−1 pepstatin A, 1 µg ml^−1 leupeptin, 1 µg ml^−1 aprotinin, 1 mM PMSF, 1 mM DTT, 0.5 mM EDTA) and APC/C was purified using magnetic IgG beads. The beads were washed using wash buffer A (20 mM HEPES pH 7.5, 150 mM KCl, 10% Glycerol, 0.05% Triton X-100). After incubation with purified Cdh1 or Cdc20, the APC/C was cleaved off the beads with TEV protease in wash buffer A with 0.05% Tween-20 (for single-molecule studies) or 0.05% Triton X-100 (for ensemble assays such as ubiquitylation) and used immediately.
as §2, §3
Microscopy was performed with a Nikon Eclipse TE2000-E with Perfect Focus with a 100 × 1.49na oil, Apo TIRF DIC N2, 0.13-0.2, WD0.12 objective. Movies were recorded using the Andor iXon DU-897E-CSO. For visualizing GFP-tagged protein, a 491 nm laser was used with an ET525/50 (Chroma) filter for emission. For visualizing JF549-labeled substrate, a 561 nm laser was used with an ET595/50 (Chroma) filter for emission. For visualizing all Cy5-labeled peptides and JF646-labeled substrates, a 640 nm laser was used with an ET685/70 filter (Chroma) for emission. Initially, for each substrate tested, we acquired movies at multiple intervals to deduce the optimal interval to decrease bleaching. µManager version 2.0 was used to control the microscope and record time-lapse movies.

[1] = mean of the listed replicates, source data of Fig. 1a (there μM), read-out: Mean Kd
[2] = replicate 2021-11-10, source data of Fig. 1a (there μM), read-out: Kd
[3] = replicate 2019-07-08, source data of Fig. 1a (there μM), read-out: Kd

T3 sequence (Q9UM11 165-484): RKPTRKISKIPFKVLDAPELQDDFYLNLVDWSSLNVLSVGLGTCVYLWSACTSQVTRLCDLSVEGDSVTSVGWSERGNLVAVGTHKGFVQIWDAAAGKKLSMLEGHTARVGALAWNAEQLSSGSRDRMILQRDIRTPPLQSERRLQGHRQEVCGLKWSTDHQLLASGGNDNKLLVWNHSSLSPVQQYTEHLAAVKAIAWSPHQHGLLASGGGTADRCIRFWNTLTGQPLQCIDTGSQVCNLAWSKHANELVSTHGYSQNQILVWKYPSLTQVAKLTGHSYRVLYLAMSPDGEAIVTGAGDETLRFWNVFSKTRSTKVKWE

Q: For `Cc1ncc([N+](=O)[O-])n1CCOC(=O)NC(Nc1ncccn1)C(Cl)(Cl)Cl` (centres unmarked) [Apcin], which “activator specificity (in words)” value (Cdc20) is on record?
A: Its value is “Cdc20 specificity”.

Q: For `CC[C@H](C)[C@H](NC(=O)[C@H](CC(=O)O)NC(=O)[C@H](CO)NC(=O)[C@H](CC(C)C)NC(=O)[C@H](C)NC(=O)[C@H](C)NC(=O)[C@H](CCCNC(=N)N)NC(=O)[C@H](CCCCN)NC(=O)[C@@H]1CCCN1C(=O)[C@H](CCCCN)NC(=O)[C@H](CCC(N)=O)NC(=O)[C@@H](N)CCC(=O)O)C(=O)N[C@H](C(=O)N[C@@H](CC(N)=O)C(=O)N[C@@H](CO)C(=O)N[C@@H](Cc1ccccc1)C(=O)N[C@@H](CC(N)=O)C(=O)N[C@@H](CCCCN)C(=O)N[C@@H](CCSC)C(=O)N[C@@H](CC(N)=O)C(=O)N[C@@H](CCCCN)C(=O)O)[C@@H](C)O` [Hsl1 D box] (H-EQKPKRAALSDITNSFNKMNK-OH), which kon (Cdh1^WD40; inferred from koff and anisotropy KD, yeast Cdh1, read-out: association rate constant kon) is on record?
A: The kon was 800000 M⁻¹ s⁻¹.

Q: And the koff (Cdh1^WD40; reciprocal of mean dwell time, read-out: dissociation rate constant koff)?
A: Its koff is 2.8 s⁻¹.

Q: What about the Kd (Cdh1 WD40 domain (yeast); [1]) of the same molecule?
A: The Kd was 3.48 µM.

Q: And the kon (hCdh1^WD40)?
A: The kon was 100000 M⁻¹ s⁻¹.

Q: Which “Dwell Time” value (APC/C^apo; Supplementary Table 1, replicate 1 (movie listed first)) does the source give for “(Cy5)-SLIFDAFNQIR [Cdh1 IR, Cy5-labeled yeast Cdh1 C-terminal IR peptide]” here?
A: The value was 0.616 ± 0.019 s.

Q: What about the “Dwell Time” value (APC/C^apo; Supplementary Table 1, replicate 2 (movie listed second)) of the same molecule?
A: Its value is 0.557 ± 0.011 s.

Q: What about the mean dwell time (APC/C^apo; representative movie, ± SE, buffer C + BSA) of the same molecule?
A: The mean dwell time was 0.616 ± 0.02 s.

Q: For “EQKPKRAALSDITNSFNKMN-K(Cy5) [Hsl1 D box and dark KEN mutant, Cy5 Hsl1 D box peptide (10 nM) in presence of unlabeled mutated Hsl1 KEN (100 µM)]”, which Kd (Cdh1 WD40 domain (yeast); [1]) is on record?
A: The Kd was 2.86 µM.

Q: What about the Kd (Cdh1 WD40 domain (yeast); [2]) of the same molecule?
A: The Kd was 2.16 µM.

Q: What about the Kd (Cdh1 WD40 domain (yeast); replicate 2021-11-15, source data of Fig. 1a (there μM), read-out: Kd) of the same molecule?
A: The Kd was 3.56 µM.

Q: And the Kd (Cdh1 WD40 domain (yeast); representative single experiment, Fig. 1c, dark = unlabeled peptide 100 µM, read-out: KD)?
A: Its Kd is 3.6 µM.

Q: With “EQKPKRAALSDITNSFNKMN-K(Cy5) [Hsl1 D box and dark KEN, Cy5 Hsl1 D box peptide (10 nM) in presence of unlabeled Hsl1 KEN (100 µM)]” as the molecule, how does the Kd (Cdh1 WD40 domain (yeast); [1]) read?
A: Its Kd is 1.12 µM.

Q: What about the Kd (Cdh1 WD40 domain (yeast); [2]) of the same molecule?
A: The Kd was 1.04 µM.

Q: Which Kd (Cdh1 WD40 domain (yeast); [1]) does the source give for “GVSTNKENEGPEYPTKIE-K(Cy5) [Hsl1 KEN and dark D box mutant, Cy5 Hsl1 KEN peptide (10 nM) in presence of unlabeled mutated Hsl1 D box (100 µM)]” here?
A: Its Kd is 10.9 µM.

Q: What about the Kd (Cdh1 WD40 domain (yeast); [3]) of the same molecule?
A: The Kd was 6.35 µM.

Q: What about the Kd (Cdh1 WD40 domain (yeast); [2]) of the same molecule?
A: Its Kd is 15.5 µM.

Q: Which Kd (Cdh1 WD40 domain (yeast); [1]) does the source give for “GVSTNKENEGPEYPTKIE-K(Cy5) [Hsl1 KEN and dark D box, Cy5 Hsl1 KEN peptide (10 nM) in presence of unlabeled Hsl1 D box (100 µM)]” here?
A: The Kd was 3.37 µM.

Q: And the Kd (Cdh1 WD40 domain (yeast); [3])?
A: Its Kd is 3.41 µM.

Q: What about the Kd (Cdh1 WD40 domain (yeast); [2]) of the same molecule?
A: The Kd was 3.34 µM.
